Reference: PMC11062922 (Nature Chemical Biology, 2023)
Where two headings read alike, the source gives them in different places. One block for each compound: values may come before it.

How the values were obtained:
MOB1A = target: T1, MOB1A (Homo sapiens, UniProt Q9H8S9); assay: Kinobeads full dose-response competition binding: MOB1A; conditions: Gene Name MOB1A
T1 construct: to maximize the representation of endogenous proteins; endogenous in cells
T1 sequence (Q9H8S9 2-216 limits assumed): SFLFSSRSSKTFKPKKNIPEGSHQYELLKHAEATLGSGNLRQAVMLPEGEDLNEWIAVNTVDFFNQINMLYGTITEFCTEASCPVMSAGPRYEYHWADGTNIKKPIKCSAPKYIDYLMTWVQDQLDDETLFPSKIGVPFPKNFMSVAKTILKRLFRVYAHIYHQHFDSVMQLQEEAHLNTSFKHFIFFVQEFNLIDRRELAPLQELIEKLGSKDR
T1 sequence (O95835 1-1130 partner): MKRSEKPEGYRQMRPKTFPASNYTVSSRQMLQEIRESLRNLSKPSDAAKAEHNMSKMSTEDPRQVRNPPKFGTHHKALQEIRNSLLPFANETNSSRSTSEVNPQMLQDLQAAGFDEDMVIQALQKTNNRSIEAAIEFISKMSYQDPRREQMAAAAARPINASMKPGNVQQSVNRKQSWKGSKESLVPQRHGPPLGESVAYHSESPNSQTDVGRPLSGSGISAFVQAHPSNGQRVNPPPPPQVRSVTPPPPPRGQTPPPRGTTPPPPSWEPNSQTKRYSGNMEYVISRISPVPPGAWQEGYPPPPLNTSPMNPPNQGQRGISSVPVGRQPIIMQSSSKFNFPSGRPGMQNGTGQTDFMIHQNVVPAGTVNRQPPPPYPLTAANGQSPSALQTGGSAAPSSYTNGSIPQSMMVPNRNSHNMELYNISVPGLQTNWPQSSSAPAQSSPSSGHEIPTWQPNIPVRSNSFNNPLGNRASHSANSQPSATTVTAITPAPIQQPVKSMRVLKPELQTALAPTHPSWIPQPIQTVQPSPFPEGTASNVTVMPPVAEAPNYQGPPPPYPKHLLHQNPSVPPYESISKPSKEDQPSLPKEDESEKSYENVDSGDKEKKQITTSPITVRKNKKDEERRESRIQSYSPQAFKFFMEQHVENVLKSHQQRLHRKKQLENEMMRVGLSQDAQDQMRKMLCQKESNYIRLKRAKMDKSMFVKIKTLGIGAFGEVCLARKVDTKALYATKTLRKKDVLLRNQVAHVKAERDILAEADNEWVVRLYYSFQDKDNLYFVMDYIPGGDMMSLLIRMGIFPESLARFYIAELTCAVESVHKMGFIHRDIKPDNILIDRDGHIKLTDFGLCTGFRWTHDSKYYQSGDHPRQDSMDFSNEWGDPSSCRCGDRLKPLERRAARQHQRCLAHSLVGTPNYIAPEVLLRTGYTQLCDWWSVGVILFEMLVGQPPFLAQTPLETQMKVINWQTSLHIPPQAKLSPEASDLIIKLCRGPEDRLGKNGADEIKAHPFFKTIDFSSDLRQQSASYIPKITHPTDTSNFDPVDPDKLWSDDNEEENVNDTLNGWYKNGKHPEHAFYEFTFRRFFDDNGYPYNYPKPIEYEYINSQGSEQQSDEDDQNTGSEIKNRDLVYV

FYN = target: T2, FYN (Homo sapiens, UniProt P06241); assay: Kinobeads two-dose competition binding: FYN; conditions: read-out: Lestaurtinib Drugmatrix value, Gene Name FYN; target FYN; each column = one Lestaurtinib control replicate (batch_R1-R3)
T2 construct: endogenous in cells
T2 sequence (P06241 whole entry): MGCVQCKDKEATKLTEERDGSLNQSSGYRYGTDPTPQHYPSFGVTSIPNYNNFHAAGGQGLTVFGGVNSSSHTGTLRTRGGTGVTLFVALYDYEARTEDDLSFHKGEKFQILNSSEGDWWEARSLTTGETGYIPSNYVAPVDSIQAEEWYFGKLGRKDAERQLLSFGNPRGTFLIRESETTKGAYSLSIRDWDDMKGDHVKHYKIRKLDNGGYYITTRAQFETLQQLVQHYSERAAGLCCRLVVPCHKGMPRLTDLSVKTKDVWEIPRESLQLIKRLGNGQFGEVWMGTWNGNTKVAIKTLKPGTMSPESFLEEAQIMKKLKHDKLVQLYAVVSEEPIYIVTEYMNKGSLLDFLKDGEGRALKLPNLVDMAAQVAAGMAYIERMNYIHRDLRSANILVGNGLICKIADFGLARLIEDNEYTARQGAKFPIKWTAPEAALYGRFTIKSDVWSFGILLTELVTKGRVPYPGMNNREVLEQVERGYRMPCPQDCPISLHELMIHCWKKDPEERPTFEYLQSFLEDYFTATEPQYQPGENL

PIP4K2C = target: T3, PIP4K2C (Homo sapiens, UniProt Q8TBX8); assay: Kinobeads competition binding, Lestaurtinib control replicates: PIP4K2C; conditions: read-out: Lestaurtinib Drugmatrix value; Gene Name PIP4K2C; one column per experiment number and replicate (R1-R3)
T3 construct: a mixture of lysates from five cancer cell lines; endogenous in cells
T3 sequence (Q8TBX8 1-421): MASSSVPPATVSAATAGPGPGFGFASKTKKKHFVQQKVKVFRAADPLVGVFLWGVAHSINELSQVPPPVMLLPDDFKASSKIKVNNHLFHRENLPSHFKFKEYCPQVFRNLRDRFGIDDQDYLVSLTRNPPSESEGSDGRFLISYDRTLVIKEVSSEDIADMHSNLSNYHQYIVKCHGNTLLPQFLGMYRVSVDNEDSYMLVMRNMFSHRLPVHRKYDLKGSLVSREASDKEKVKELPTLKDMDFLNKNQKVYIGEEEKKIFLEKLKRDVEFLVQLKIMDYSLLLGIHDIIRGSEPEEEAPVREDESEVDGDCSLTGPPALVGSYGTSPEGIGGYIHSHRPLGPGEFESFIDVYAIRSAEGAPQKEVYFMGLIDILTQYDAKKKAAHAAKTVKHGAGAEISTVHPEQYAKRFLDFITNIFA

468 kinases = test system: 468 kinases; parameters: KINOMEScan: unit not given here; conditions: cited from earlier work; for KINOMEScan: published data

- Relative Intensity 0.3nM (MOB1A; 0.3nM compound, DMSO = 1): 1.163
- Relative Intensity 1nM (MOB1A; 1nM compound, DMSO = 1): 0.99
- Relative Intensity 3nM (MOB1A; 3nM compound, DMSO = 1): 1.359
- Relative Intensity 10nM (MOB1A; 10nM compound, DMSO = 1): 0.9582
- Relative Intensity 30nM (MOB1A; 30nM compound, DMSO = 1): 0.9019
- Relative Intensity 100nM (MOB1A; 100nM compound, DMSO = 1): 0.7347
- Relative Intensity 300nM (MOB1A; 300nM compound, DMSO = 1): 0.3297
- Relative Intensity 1000nM (MOB1A; 1000nM compound, DMSO = 1): 0
- Kd (MOB1A; EC50 with Correction, doses in nM, read-out: apparent Kd): 223 nM
- EC50 (MOB1A; eight-dose curve fit, doses in nM): 223 nM
Structure (SMILES): CCn1c(-c2nonc2N)nc2c(C#CC(C)(C)O)nc(OCCN)cc21 [GSK902056A]

Structure (SMILES): C[C@]12O[C@H](C[C@]1(O)CO)n1c3ccccc3c3c4c(c5c6ccccc6n2c5c31)CNC4=O [Lestaurtinib]
- potency estimated from few doses (FYN): 817 nM
- potency estimated from few doses (PIP4K2C): 86.5 nM

Structure (SMILES): COc1cc(Nc2ncc3c(C)nc(-c4cc5ccccc5[nH]4)n3n2)cc(OC)c1OC [GW869516X]
- number of kinases with more than 70% inhibition of binding (468 kinases; broad KINOMEscan assay covering 468 kinases, ref a previous study): 33
- KINOMEScan (468 kinases; kinase AMPK-alpha1): 89
- KINOMEScan (468 kinases; kinase AMPK-alpha2): 61
- KINOMEScan (468 kinases; kinase BLK): 60
- KINOMEScan (468 kinases; kinase CIT): 100
- KINOMEScan (468 kinases; kinase CLK1): 88
- KINOMEScan (468 kinases; kinase CLK2): 75
- KINOMEScan (468 kinases; kinase CSNK2A1): 96.4
- KINOMEScan (468 kinases; kinase CSNK2A2): 99.7
- KINOMEScan (468 kinases; kinase DDR1): 52
- KINOMEScan (468 kinases; kinase DDR2): 52
- KINOMEScan (468 kinases; kinase DYRK1A): 85
- KINOMEScan (468 kinases; kinase DYRK1B): 81
- KINOMEScan (468 kinases; kinase EPHB1): 58
- KINOMEScan (468 kinases; kinase FLT3-autoinhibited): 75
- KINOMEScan (468 kinases; kinase FLT3): 96.3
- KINOMEScan (468 kinases; kinase GCN2(Kin.Dom.2,S808G)): 88
- KINOMEScan (468 kinases; kinase HIPK1): 79
- KINOMEScan (468 kinases; kinase INSRR): 53
- KINOMEScan (468 kinases; kinase JAK1(JH2domain-pseudokinase)): 98.5
- KINOMEScan (468 kinases; kinase JAK2(JH1domain-catalytic)): 54
- KINOMEScan (468 kinases; kinase KIT): 72
- KINOMEScan (468 kinases; kinase LCK): 71
- KINOMEScan (468 kinases; kinase MAP3K4): 52
- KINOMEScan (468 kinases; kinase MEK5): 78
- KINOMEScan (468 kinases; kinase MERTK): 56
- KINOMEScan (468 kinases; kinase MLK1): 93.8
- KINOMEScan (468 kinases; kinase MLK2): 89
- KINOMEScan (468 kinases; kinase MLK3): 87
- KINOMEScan (468 kinases; kinase NEK2): 70
- KINOMEScan (468 kinases; kinase NEK3): 89
- KINOMEScan (468 kinases; kinase NEK5): 99
- KINOMEScan (468 kinases; kinase NEK6): 99.6
- KINOMEScan (468 kinases; kinase NEK7): 99.7
- KINOMEScan (468 kinases; kinase NEK9): 90
- KINOMEScan (468 kinases; kinase NEK11): 86
- KINOMEScan (468 kinases; kinase PAK3): 69
- KINOMEScan (468 kinases; kinase PIP5K1C): 89
- KINOMEScan (468 kinases; kinase PIP5K2C): 90.3
- KINOMEScan (468 kinases; kinase PKAC-beta): 51
- KINOMEScan (468 kinases; kinase RSK1(Kin.Dom.1-N-terminal)): 91.7
- KINOMEScan (468 kinases; kinase RSK3(Kin.Dom.1-N-terminal)): 66
- KINOMEScan (468 kinases; kinase SLK): 63
- KINOMEScan (468 kinases; kinase SRC): 90.1
- KINOMEScan (468 kinases; kinase STK16): 86
- KINOMEScan (468 kinases; kinase SYK): 53
- KINOMEScan (468 kinases; kinase TBK1): 58
- KINOMEScan (468 kinases; kinase TYK2(JH2domain-pseudokinase)): 82
- KINOMEScan (468 kinases; kinase ULK2): 51
- KINOMEScan (468 kinases; kinase WEE2): 85
